This note sets out measurements from ChEMBL document CHEMBL1156709, “Evaluation of ursolic acid isolated from Ilex paraguariensis and derivatives on aromatase inhibition” (Eur J Med Chem, 2008).

The first assay deals with T1, Aromatase (Homo sapiens, UniProt P11511).
T1 sequence (P11511 whole entry): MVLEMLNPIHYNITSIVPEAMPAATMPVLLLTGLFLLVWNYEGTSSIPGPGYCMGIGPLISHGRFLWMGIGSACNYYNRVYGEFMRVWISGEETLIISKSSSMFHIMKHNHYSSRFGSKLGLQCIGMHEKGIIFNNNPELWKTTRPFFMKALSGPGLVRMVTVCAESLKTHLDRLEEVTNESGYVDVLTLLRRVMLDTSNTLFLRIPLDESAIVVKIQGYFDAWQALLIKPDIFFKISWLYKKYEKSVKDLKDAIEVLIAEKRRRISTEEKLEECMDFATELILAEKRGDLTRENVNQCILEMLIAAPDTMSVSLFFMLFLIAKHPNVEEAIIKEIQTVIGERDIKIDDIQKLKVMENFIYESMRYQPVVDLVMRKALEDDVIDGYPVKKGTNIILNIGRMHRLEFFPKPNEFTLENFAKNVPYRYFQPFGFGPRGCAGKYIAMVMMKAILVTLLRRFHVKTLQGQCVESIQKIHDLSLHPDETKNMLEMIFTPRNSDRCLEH
Description: Inhibition of aromatase at 40.7 uM.
In turn, `CC1(C)CC[C@]2(C(=O)O)CC[C@]3(C)C(=CC[C@@H]4[C@@]5(C)CC[C@H](O)C(C)(C)[C@@H]5CC[C@]43C)[C@@H]2C1` [OLEANOLIC_ACID] yielded an inhibition at 40.7 µM of 12%.

`C[C@H]1[C@H](C)CC[C@]2(C(=O)O)CC[C@]3(C)C(=CC[C@@H]4[C@@]5(C)CC[C@H](O)C(C)(C)[C@@H]5CC[C@]43C)[C@H]12` [URSOLIC ACID]: the inhibition at 40.7 µM was found to be 12%.

The target in the next assay is T1, Aromatase. The assay is described as follows: Inhibition of aromatase in human placental microsomes assessed as tritiated water release after 15 mins using [1-beta, 3H]androstenedione as substrate by scintillation counting. Further details: species or system Placenta.
As for `C[C@H]1[C@H](C)CC[C@]2(C(=O)NCCCN3CCN(CCCN)CC3)CC[C@]3(C)C(=CC[C@@H]4[C@@]5(C)CC[C@H](O)C(C)(C)[C@@H]5CC[C@]43C)[C@H]12`, the half-maximal inhibitory concentration (IC50) is less than 500 µM.

On to `CC(=O)O[C@H]1CC[C@]2(C)[C@H]3CC=C4[C@@H]5[C@@H](C)[C@H](C)CC[C@]5(C(=O)NCCCN5CCN(CCCN)CC5)CC[C@@]4(C)[C@]3(C)CC[C@H]2C1(C)C`, for which the IC50 is less than 500 µM. Same read-out and setting: in the case of `C[C@H]1[C@H](C)CC[C@]2(C(=O)O)CC[C@]3(C)C(=CC[C@@H]4[C@@]5(C)CCC(=O)NC(C)(C)[C@@H]5CC[C@]43C)[C@H]12` it was more than 500 µM; in that of `C=C(C)[C@@H]1CC[C@]2(C)[C@H](CC=C3[C@@H]4[C@@H](C)[C@H](C)CC[C@]4(C(=O)O)CC[C@]32C)[C@@]1(C)CCC#N`, more than 500 µM. With `C[C@H]1[C@H](C)CC[C@]2(C(=O)O)CC[C@]3(C)C(=CC[C@@H]4[C@@]5(C)CC/C(=N\O)C(C)(C)[C@@H]5CC[C@]43C)[C@H]12`, the IC50 is more than 500 µM.

For the compound `C[C@]12CCC(=O)C(O)=C1CC[C@@H]1[C@@H]2CC[C@]2(C)C(=O)CC[C@@H]12` [FORMESTANE], the IC50 is 0.8 µM. On the same count and under the same terms, in the case of `C[C@H]1[C@H](C)CC[C@]2(C(=O)O)CC[C@]3(C)C(=CC[C@@H]4[C@@]5(C)CC[C@H](O)C(C)(C)[C@@H]5CC[C@]43C)[C@H]12` [URSOLIC ACID] it was 32 µM. On the same count and under the same terms, as for `C[C@H]1[C@H](C)CC[C@]2(C(=O)O)CC[C@]3(C)C(=CC[C@@H]4[C@@]5(C)CCC(=O)C(C)(C)[C@@H]5CC[C@]43C)[C@H]12` [URSONIC ACID], the figure is more than 500 µM.

The target of a further assay is T1, Aromatase. Description: Inhibition of aromatase.
`CC(=O)O[C@H]1CC[C@]2(C)[C@H]3CC=C4[C@@H]5[C@@H](C)[C@H](C)CC[C@]5(C(=O)O)CC[C@@]4(C)[C@]3(C)CC[C@H]2C1(C)C` [O-ACETYLURSOLIC ACID] showed an IC50 of 85.6 µM.

On to `C[C@H]1[C@H](C)CC[C@]2(C(=O)O)CC[C@]3(C)C(=CC[C@@H]4[C@@]5(C)CC[C@H](O)C(C)(C)[C@@H]5CC[C@]43C)[C@H]12` [URSOLIC ACID], for which the concentration for half-maximal inhibition (IC50) is 30.7 µM.
